System: mice
Experiment: acetic acid-induced stretching/writhing test in mice (based on Koster et al.)
Assay type: in vivo
Details: Mus musculus, sc; subcutaneous, 30 minutes before peritoneal acetic acid (100 mg/kg); mice fasted 24 hours; 15 minute observation; read-out: ED50 (amount producing the desired inhibition of stretching or "writhing" in 50 percent of a population)
Description: Illustrative examples of the activity for use as described above for the novel compounds of the present invention are shown as the compound of the noted examples described in the following material when administered in a test based on that of Koster et al. [Fed. Proc., Vol. 18 (1959), p. 412] in which the peritoneal injection of acetic acid to mice provokes repeated stretching and twisting movements which persist for more than six hours. Analgesics prevent or suppress these syndromes which are considered to be an exteriorization of a diffuse abdominal pain. A 1% solution of acetic acid in water is used at a dose of 0.01 ml/g or 100 mg/kg of acetic acid to release the syndrome.
The compound to be tested is subcutaneously administered 30 minutes before the acetic acid injection and the mice are fasted 24 hours before the start of the test. The stretching for the mice is observed and totaled for each mouse in a 15 minute observation period starting just after the acetic acid injection. The results are expressed as mg/kg which amount produces the desired inhibition of stretching or "writhing" in 50 percent of a population.

Compound | ED50 [mg/kg]
CCCCCCCCNC(=O)Cc1ccc(O)c(Br)c1 [Example 2, Benzeneacetamide, 3-Bromo-4-hydroxy-N-octyl-] | 2.5
CCCCCCCCNC(=O)Cc1ccc(O)c(F)c1 [Example 3, Benzeneacetamide, 3-Fluoro-4-hydroxy-N-octyl-] | 3.2
CCCCCCCCNC(=O)Cc1ccc(O)c(Cl)c1 [Example 1, Benzeneacetamide, 3-Chloro-4-hydroxy-N-octyl-] | 6.1
